Laboratory results published in US9314019B2, “Snout beetle attractant” (priority 2011, dated 2016).

Tested on: snout beetles
Assay: Field test of individual odorants in yellow Delta traps
Type: in vivo, Eremnus setulosus and/or Phlyctinus calosus
Conditions: for Numbers of snout beetles caught in yellow Delta traps, Mean: mean of six replications, traps collected after one week; for Numbers of snout beetles caught in yellow Delta traps, Rep. 1: replication 1; for Numbers of snout beetles caught in yellow Delta traps, Rep. 1 / Numbers of snout beetles caught in yellow Delta traps, Rep. 2 / Numbers of snout beetles caught in yellow Delta traps, Rep. 3 / Numbers of snout beetles caught in yellow Delta traps, Rep. 4 / Numbers of snout beetles caught in yellow Delta traps, Rep. 5 / Numbers of snout beetles caught in yellow Delta traps, Rep. 6: traps at ground level against apple tree trunks, collected after one week; for Numbers of snout beetles caught in yellow Delta traps, Rep. 2: replication 2; for Numbers of snout beetles caught in yellow Delta traps, Rep. 3: replication 3; for Numbers of snout beetles caught in yellow Delta traps, Rep. 4: replication 4; for Numbers of snout beetles caught in yellow Delta traps, Rep. 5: replication 5; for Numbers of snout beetles caught in yellow Delta traps, Rep. 6: replication 6
From the text: Yellow Delta traps fitted with bottom sticky pads upon which odorant dispensers of the various test odorants were applied, were placed on ground level against the trunks of bearing apple trees in the Koue Bokkeveld area in the Western Cape Province, South Africa. Test orchards infested with snout beetles were selected on the farms Dennekruin and Voorsorg in the Ceres-Koue-Bokkeveld area.
Unloaded or “blank” traps with no odorants, but identical to the other traps in all other respects, were used as a control. There are no attractants registered for use on snout beetles on deciduous fruit in South Africa with which to compare the experimental results.
After one week the traps were collected and the snout beetles caught were counted and noted. Six replications were used per odorant tested. In Table 1 below the summarised results of the experiments are presented.

CC(=O)CCC(C)C [5-Methyl-2-hexanone]
Numbers of snout beetles caught in yellow Delta traps, Mean: 2.7 | Numbers of snout beetles caught in yellow Delta traps, Rep. 1: 4 | Numbers of snout beetles caught in yellow Delta traps, Rep. 2: 1 | Numbers of snout beetles caught in yellow Delta traps, Rep. 3: 1 | Numbers of snout beetles caught in yellow Delta traps, Rep. 4: 5 | Numbers of snout beetles caught in yellow Delta traps, Rep. 5: 3 | Numbers of snout beetles caught in yellow Delta traps, Rep. 6: 2

COc1ccccc1 [Anisole]
Numbers of snout beetles caught in yellow Delta traps, Mean: 2.7 | Numbers of snout beetles caught in yellow Delta traps, Rep. 1: 4 | Numbers of snout beetles caught in yellow Delta traps, Rep. 2: 1 | Numbers of snout beetles caught in yellow Delta traps, Rep. 3: 3 | Numbers of snout beetles caught in yellow Delta traps, Rep. 4: 3 | Numbers of snout beetles caught in yellow Delta traps, Rep. 5: 2 | Numbers of snout beetles caught in yellow Delta traps, Rep. 6: 3

COc1cccc(C(C)=O)c1 [3-Methoxy acetophenone]
Numbers of snout beetles caught in yellow Delta traps, Mean: 2.5 | Numbers of snout beetles caught in yellow Delta traps, Rep. 1: 3 | Numbers of snout beetles caught in yellow Delta traps, Rep. 2: 1 | Numbers of snout beetles caught in yellow Delta traps, Rep. 3: 6 | Numbers of snout beetles caught in yellow Delta traps, Rep. 4: 2 | Numbers of snout beetles caught in yellow Delta traps, Rep. 5: 1 | Numbers of snout beetles caught in yellow Delta traps, Rep. 6: 2

COC1=C(C)OC(C)C1=O (centres unmarked) [2,5-Dimethyl-4-methoxy-3(2H)-furanone]
Numbers of snout beetles caught in yellow Delta traps, Mean: 3.5 | Numbers of snout beetles caught in yellow Delta traps, Rep. 1: 2 | Numbers of snout beetles caught in yellow Delta traps, Rep. 2: 4 | Numbers of snout beetles caught in yellow Delta traps, Rep. 3: 3 | Numbers of snout beetles caught in yellow Delta traps, Rep. 4: 2 | Numbers of snout beetles caught in yellow Delta traps, Rep. 5: 3 | Numbers of snout beetles caught in yellow Delta traps, Rep. 6: 7

O=C(O)C1CC1 [Cyclopropane carboxylic acid]
Numbers of snout beetles caught in yellow Delta traps, Mean: 7.8 | Numbers of snout beetles caught in yellow Delta traps, Rep. 1: 6 | Numbers of snout beetles caught in yellow Delta traps, Rep. 2: 7 | Numbers of snout beetles caught in yellow Delta traps, Rep. 3: 5 | Numbers of snout beetles caught in yellow Delta traps, Rep. 4: 7 | Numbers of snout beetles caught in yellow Delta traps, Rep. 5: 3 | Numbers of snout beetles caught in yellow Delta traps, Rep. 6: 19
